According to patent US8703815B2, “Small molecules that covalently modify transthyretin” (The Scripps Research Institute, priority 2009, dated 2014):

What was measured:
human fibroblasts = assay: A2 treatment of human fibroblasts (no TTR); format: cell-based; conditions: A2 10 μM, 30 minutes
Excerpt: The confocal fluorescence observations are consistent with substantial evidence that the liver secretes the vast majority, if not all, of the TTR into the human bloodstream [Felding et al., Biochimica et Biophysica Acta 1982, 716, 446-9]. That TTR could be visualized in the secretory pathway addresses the sensitivity of A2-derived TTR fluorescent conjugate-based detection [Sekijima et al., Cell 2005, 121, 73-85].
Huh-7 cells or Gaucher's patient-derived fibroblasts (Coriell Cell Repositories, GM08760) were maintained in DMEM containing 10% FBS at 37° C. under 5% CO2. The cells were plated the day before compound treatment and imaging. Cells were washed twice with PBS and then treated with A2 (final concentration: 10 μM) for 30 minutes at 37° C. in a CO2 incubator. After two washes, cells were fixed at 25° C. for 15 minutes with 3.7% paraformaldehyde (w/v) in PBS and microscopic images were acquired as described above.

[1] = Quantum yield measurement in buffer; format: physicochemical
Method: The covalent TTR modifier A1 or A2 or the non-covalent TTR ligand B2 (15 μL of a 1.44 mM solution in DMSO, final concentration: 7.2 μM) was added to 3 mL of a solution of WT-TTR homotetramer (0.2 mg/mL, 3.6 μM) in 10 mM phosphate, 100 mM KCl and 1 mM EDTA (pH 7.0 phosphate buffer). The samples were vortexed, and incubated for 18 hours at 25° C. Quantum yields were measured by following the instructions at the web site: jobinyvon.com/usadivisions/Fluorescence/applications/quantumyieldstrad.pdf. Quinine bisulfate in 0.5 M H2SO4 was used as a reference for comparison (Φf=0.546). [Crosby et al., J. Phys. Chem. 1971, 75, 991-1024.]

fluorescence quantum yield in buffer [1]: 0.00
SMILES: Cc1cc(/C=C/c2cc(C(=O)Sc3ccc(F)cc3)cc(N(C)C)c2)cc(C)c1O [Compound A2, (E)-S-4-fluorophenyl 3-(dimethylamino)-5-(4-hydroxy-3,5-dimethylstyryl)-benzothioate]
fluorescence in human fibroblasts (human fibroblasts): no significant fluorescence
